Reference: ChEMBL document CHEMBL6127104, “Prorocentin-5: A Cytotoxic Polyketide from the Benthic Marine Dinoflagellate Prorocentrum lima” (J Nat Prod, 2024)
pIC50: −log10 of the molar value. Activity calls are given as the source filed them. No cut-off for these calls is given here.

Columns and labels:
HCT-116 [1] = test: Induction of apoptosis in human HCT-116 cells assessed as early apoptotic cells at 1 uM incubated for 24 hrs by Annexin V-FITC/PI staining based flow cytometric analysis (reference value: 1.90 %); assay type: functional
HCT-116 [2] = test: Induction of apoptosis in human HCT-116 cells assessed as late apoptotic cells at 1 uM incubated for 24 hrs by Annexin V-FITC/PI staining based flow cytometric analysis (reference value: 6.15 %); assay type: functional
HCT-116 [3] = test: Cytotoxicity against human HCT-116 cells assessed as inhibition of cell proliferation incubated for 24 hrs by MTT assay; assay type: functional, cell-based; conditions: HCT-116, 24 h
N2a [4] = test: Induction of apoptosis in mouse Neuro2a cells assessed as late apoptotic cells at 0.1 uM incubated for 24 hrs by Annexin V-FITC/PI staining based analysis (reference value: 0.81 %); assay type: functional
N2a [5] = test: Induction of apoptosis in mouse Neuro2a cells assessed as fold increase in late apoptotic cells at 1 uM incubated for 24 hrs by Annexin V-FITC/PI staining based analysis; assay type: functional
N2a [6] = test: Induction of apoptosis in mouse Neuro2a cells assessed as viable cells at 0.1 uM incubated for 24 hrs by Annexin V-FITC/PI staining based analysis (reference value: 91.70 %); assay type: functional; conditions: read-out: Activity
HepG2 [7] = test: Induction of cell cycle arrest in human HepG2 cells assessed as accumulation of cells at G2/M phase at 0.1 uM incubated for 24 hrs by flow cytometric analysis (reference value: 6.7 %); assay type: functional
HepG2 [8] = test: Induction of apoptosis in human HepG2 cells assessed as viable cells at 0.1 uM incubated for 24 hrs by Annexin V-FITC/PI staining based flow cytometric analysis (reference value: 90.08 %); assay type: functional; conditions: read-out: Activity
HCT-116 [9] = test: Induction of apoptosis in human HCT-116 cells assessed as fold increase in late apoptotic cells at 1 uM incubated for 24 hrs by Annexin V-FITC/PI staining based analysis; assay type: functional
HepG2 [10] = test: Induction of apoptosis in human HepG2 cells assessed as fold increase in late apoptotic cells at 1 uM incubated for 24 hrs by Annexin V-FITC/PI staining based flow cytometric analysis; assay type: functional
N2a [11] = test: Induction of cell cycle arrest in mouse Neuro2a cells assessed as accumulation of cells at G0/G1 phase at 1 uM incubated for 24 hrs by flow cytometric analysis (reference value: 61.5 %); assay type: functional
HepG2 [12] = test: Induction of apoptosis in human HepG2 cells assessed as necrotic cells at 1 uM incubated for 24 hrs by Annexin V-FITC/PI staining based flow cytometric analysis (reference value: 3.02 %); assay type: functional
HepG2 [13] = test: Induction of apoptosis in human HepG2 cells assessed as viable cells at 1 uM incubated for 24 hrs by Annexin V-FITC/PI staining based flow cytometric analysis (reference value: 90.08 %); assay type: functional; conditions: read-out: Activity
N2a [14] = test: Induction of apoptosis in mouse Neuro2a cells assessed as necrotic cells at 0.1 uM incubated for 24 hrs by Annexin V-FITC/PI staining based analysis (reference value: 4.33 %); assay type: functional
HCT-116 [15] = test: Induction of cell cycle arrest in human HCT-116 cells assessed as accumulation of cells at G0/G1 phase at 0.1 uM incubated for 24 hrs by flow cytometric analysis (reference value: 90.2 %); assay type: functional
HepG2 [16] = test: Induction of apoptosis in human HepG2 cells assessed as early apoptotic cells at 0.1 uM incubated for 24 hrs by Annexin V-FITC/PI staining based flow cytometric analysis (reference value: 4.85 %); assay type: functional
HepG2 [17] = test: Induction of cell cycle arrest in human HepG2 cells assessed as accumulation of cells at S phase at 1 uM incubated for 24 hrs by flow cytometric analysis (reference value: 27.8 %); assay type: functional
HepG2 [18] = test: Induction of cell cycle arrest in human HepG2 cells assessed as accumulation of cells at G0/G1 phase at 1 uM incubated for 24 hrs by flow cytometric analysis (reference value: 66.4 %); assay type: functional
HepG2 [19] = test: Induction of apoptosis in human HepG2 cells assessed as fold increase in early apoptotic cells at 1 uM incubated for 24 hrs by Annexin V-FITC/PI staining based flow cytometric analysis; assay type: functional
N2a [20] = test: Induction of apoptosis in mouse Neuro2a cells assessed as early apoptotic cells at 1 uM incubated for 24 hrs by Annexin V-FITC/PI staining based analysis (reference value: 3.17 %); assay type: functional
N2a [21] = test: Cytotoxicity against mouse Neuro2a cells assessed as inhibition of cell proliferation incubated for 24 hrs by MTT assay; assay type: functional, cell-based
HepG2 [22] = test: Induction of apoptosis in human HepG2 cells assessed as late apoptotic cells at 1 uM incubated for 24 hrs by Annexin V-FITC/PI staining based flow cytometric analysis (reference value: 2.05 %); assay type: functional
HepG2 [23] = test: Induction of cell cycle arrest in human HepG2 cells assessed as accumulation of cells at G2/M phase at 1 uM incubated for 24 hrs by flow cytometric analysis (reference value: 27.8 %); assay type: functional
HepG2 [24] = test: Cytotoxicity against human HepG2 cells assessed as inhibition of cell proliferation AT 0.1 to 10 uM incubated for 24 hrs by MTT assay; assay type: functional, cell-based; conditions: dose 0.1-10 µM
HCT-116 [25] = test: Induction of cell cycle arrest in human HCT-116 cells assessed as accumulation of cells at G2/M phase at 1 uM incubated for 24 hrs by flow cytometric analysis (reference value: 30.6 %); assay type: functional
N2a [26] = test: Induction of cell cycle arrest in mouse Neuro2a cells assessed as accumulation of cells at G2/M phase at 0.1 uM incubated for 24 hrs by flow cytometric analysis (reference value: 8.0 %); assay type: functional
HepG2 [27] = test: Induction of cell cycle arrest in human HepG2 cells assessed as accumulation of cells at G0/G1 phase at 0.1 uM incubated for 24 hrs by flow cytometric analysis (reference value: 66.4 %); assay type: functional
HCT-116 [28] = test: Induction of cell cycle arrest in human HCT-116 cells assessed as accumulation of cells at S phase at 0.1 uM incubated for 24 hrs by flow cytometric analysis (reference value: 19.2 %); assay type: functional
N2a [29] = test: Induction of cell cycle arrest in mouse Neuro2a cells assessed as accumulation of cells at S phase at 1 uM incubated for 24 hrs by flow cytometric analysis (reference value: 30.5 %); assay type: functional
HCT-116 [30] = test: Induction of apoptosis in human HCT-116 cells assessed as necrotic cells at 1 uM incubated for 24 hrs by Annexin V-FITC/PI staining based flow cytometric analysis (reference value: 1.45 %); assay type: functional
HCT-116 [31] = test: Induction of apoptosis in human HCT-116 cells assessed as viable cells at 0.1 uM incubated for 24 hrs by Annexin V-FITC/PI staining based flow cytometric analysis (reference value: 90.50 %); assay type: functional; conditions: read-out: Activity
N2a [32] = test: Induction of apoptosis in mouse Neuro2a cells assessed as early apoptotic cells at 0.1 uM incubated for 24 hrs by Annexin V-FITC/PI staining based analysis (reference value: 3.17 %); assay type: functional
N2a [33] = test: Induction of apoptosis in mouse Neuro2a cells assessed as fold increase in early apoptotic cells at 1 uM incubated for 24 hrs by Annexin V-FITC/PI staining based analysis; assay type: functional
N2a [34] = test: Induction of cell cycle arrest in mouse Neuro2a cells assessed as accumulation of cells at G2/M phase at 1 uM incubated for 24 hrs by flow cytometric analysis (reference value: 8.0 %); assay type: functional
N2a [35] = test: Cytotoxicity against mouse Neuro2a cells assessed as inhibition of cell proliferation at 0.1 to 10 uM incubated for 24 hrs by MTT assay; assay type: functional, cell-based; conditions: dose 0.1-10 µM
HCT-116 [36] = test: Induction of cell cycle arrest in human HCT-116 cells assessed as accumulation of cells at G2/M phase at 0.1 uM incubated for 24 hrs by flow cytometric analysis (reference value: 30.6 %); assay type: functional
HCT-116 [37] = test: Induction of apoptosis in human HCT-116 cells assessed as late apoptotic cells at 0.1 uM incubated for 24 hrs by Annexin V-FITC/PI staining based flow cytometric analysis (reference value: 6.15 %); assay type: functional
N2a [38] = test: Induction of apoptosis in mouse Neuro2a cells assessed as necrotic cells at 1 uM incubated for 24 hrs by Annexin V-FITC/PI staining based analysis (reference value: 4.33 %); assay type: functional
HCT-116 [39] = test: Induction of apoptosis in human HCT-116 cells assessed as early apoptotic cells at 0.1 uM incubated for 24 hrs by Annexin V-FITC/PI staining based flow cytometric analysis (reference value: 1.90 %); assay type: functional
N2a [40] = test: Induction of cell cycle arrest in mouse Neuro2a cells assessed as accumulation of cells at S phase at 0.1 uM incubated for 24 hrs by flow cytometric analysis (reference value: 30.5 %); assay type: functional
HepG2 [41] = test: Induction of cell cycle arrest in human HepG2 cells assessed as accumulation of cells at S phase at 0.1 uM incubated for 24 hrs by flow cytometric analysis (reference value: 27.8 %); assay type: functional
HCT-116 [42] = test: Induction of apoptosis in human HCT-116 cells assessed as viable cells at 1 uM incubated for 24 hrs by Annexin V-FITC/PI staining based flow cytometric analysis (reference value: 90.50 %); assay type: functional; conditions: read-out: Activity
N2a [43] = test: Induction of apoptosis in mouse Neuro2a cells assessed as late apoptotic cells at 1 uM incubated for 24 hrs by Annexin V-FITC/PI staining based analysis (reference value: 0.81 %); assay type: functional
N2a [44] = test: Induction of cell cycle arrest in mouse Neuro2a cells assessed as accumulation of cells at G0/G1 phase at 0.1 uM incubated for 24 hrs by flow cytometric analysis (reference value: 61.5 %); assay type: functional
N2a [45] = test: Induction of apoptosis in mouse Neuro2a cells assessed as viable cells at 1 uM incubated for 24 hrs by Annexin V-FITC/PI staining based analysis (reference value: 91.70 %); assay type: functional; conditions: read-out: Activity
HCT-116 [46] = test: Induction of cell cycle arrest in human HCT-116 cells assessed as accumulation of cells at S phase at 1 uM incubated for 24 hrs by flow cytometric analysis (reference value: 19.2 %); assay type: functional
HCT-116 [47] = test: Induction of apoptosis in human HCT-116 cells assessed as fold increase in early apoptotic cells at 1 uM incubated for 24 hrs by Annexin V-FITC/PI staining based analysis; assay type: functional
HCT-116 [48] = test: Induction of apoptosis in human HCT-116 cells assessed as necrotic cells at 0.1 uM incubated for 24 hrs by Annexin V-FITC/PI staining based flow cytometric analysis (reference value: 1.45 %); assay type: functional
HepG2 [49] = test: Induction of apoptosis in human HepG2 cells assessed as early apoptotic cells at 1 uM incubated for 24 hrs by Annexin V-FITC/PI staining based flow cytometric analysis (reference value: 4.85 %); assay type: functional
HepG2 [50] = test: Induction of apoptosis in human HepG2 cells assessed as late apoptotic cells at 0.1 uM incubated for 24 hrs by Annexin V-FITC/PI staining based flow cytometric analysis (reference value: 2.05 %); assay type: functional
HCT-116 [51] = test: Induction of cell cycle arrest in human HCT-116 cells assessed as accumulation of cells at G0/G1 phase at 1 uM incubated for 24 hrs by flow cytometric analysis (reference value: 90.2 %); assay type: functional
HepG2 [52] = test: Induction of apoptosis in human HepG2 cells assessed as necrotic cells at 0.1 uM incubated for 24 hrs by Annexin V-FITC/PI staining based flow cytometric analysis (reference value: 3.02 %); assay type: functional
HCT-116 [53] = test: Cytotoxicity against human HCT-116 cells assessed as inhibition of cell proliferation at 0.1 to 10 uM incubated for 24 hrs by MTT assay; assay type: functional, cell-based; conditions: dose 0.1-10 µM

## CC(=O)CCCCC[C@@H](O)[C@H](C)C[C@H](C)CC[C@@H]1O[C@H]1C[C@@H]1CC[C@@H](/C=C/C=C/C[C@H](O)C[C@H]2C=C[C@@H](C=C(C)C)O2)O1
HCT-116 [1]
  Activity: 5.15%
HCT-116 [2]
  Activity: 17.52%
HCT-116 [3]
  pIC50: 5.36
N2a [4]
  Activity: 7.2%
N2a [5]
  fold change (FC): 30.7
N2a [6]
  viability at 0.1 µM: 76%
HepG2 [7]
  Activity: 10.5%
HepG2 [8]
  viability at 0.1 µM: 52.2%
HCT-116 [9]
  fold change (FC): 2.9
HepG2 [10]
  fold change (FC): 10
N2a [11]
  Activity: 43.2%
HepG2 [12]
  Activity: 1.72%
HepG2 [13]
  viability at 1 µM: 49.8%
N2a [14]
  Activity: 1.16%
HCT-116 [15]
  Activity: 48.4%
HepG2 [16]
  Activity: 30.92%
HepG2 [17]
  Activity: 34.7%
HepG2 [18]
  Activity: 52.3%
HepG2 [19]
  fold change (FC): 5.8
N2a [20]
  Activity: 17.3%
N2a [21]
  pIC50: 5.55
HepG2 [22]
  Activity: 20.59%
HepG2 [23]
  Activity: 13%
HepG2 [24]
  Activity: Active
HCT-116 [25]
  Activity: 27.1%
N2a [26]
  Activity: 10.4%
HepG2 [27]
  Activity: 54.5%
HCT-116 [28]
  Activity: 18.7%
N2a [29]
  Activity: 43.1%
HCT-116 [30]
  Activity: 18.45%
HCT-116 [31]
  viability at 0.1 µM: 75.2%
N2a [32]
  Activity: 15.67%
N2a [33]
  fold change (FC): 5.5
N2a [34]
  Activity: 13.7%
N2a [35]
  Activity: Active
HCT-116 [36]
  Activity: 31.9%
HCT-116 [37]
  Activity: 14.55%
N2a [38]
  Activity: 2.85%
HCT-116 [39]
  Activity: 4.9%
N2a [40]
  Activity: 38.1%
HepG2 [41]
  Activity: 36%
HCT-116 [42]
  viability at 1 µM: 58.5%
N2a [43]
  Activity: 24.75%
N2a [44]
  Activity: 51.5%
N2a [45]
  viability at 1 µM: 55.1%
HCT-116 [46]
  Activity: 26%
HCT-116 [47]
  fold change (FC): 2.7
HCT-116 [48]
  Activity: 5.4%
HepG2 [49]
  Activity: 27.87%
HepG2 [50]
  Activity: 15.02%
HCT-116 [51]
  Activity: 6.8%
HepG2 [52]
  Activity: 1.88%
HCT-116 [53]
  Activity: Active
